Assay results from patent publication US20230227437A1, “IMMUNOMODULATOR” (priority 2020, published 2023).

Tests used:
hIL-17A = molecular target: T1, hIL-17A (Homo sapiens, UniProt Q16552); assay: Inhibition of hIL-17A-induced chemokine GROα/CXCL1 production in HT-29 cell; format: cell-based
T1 construct: purchased R&D 317-ILB
T1 sequence (Q16552 20-155 limits assumed): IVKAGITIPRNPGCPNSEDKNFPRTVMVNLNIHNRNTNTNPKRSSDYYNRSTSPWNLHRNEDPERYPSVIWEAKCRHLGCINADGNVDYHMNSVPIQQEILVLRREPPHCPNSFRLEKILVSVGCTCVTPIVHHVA
Procedure: Human colorectal adenocarcinoma cell HT-29 was inoculated to a 96-well plate (5×10^4 for per well), and incubated at 37° C. on an incubator overnight. A mixture of 30 ng/mL hIL-17A protein (R&D, #317-ILB) with gradient concentrations of IL-17A small molecule inhibitors or with 0.3 μg/mL positive control IL-17A antibody (R&D, #AF-317-NA) was incubated for 1 h at 37° C., and added into the 96-well plate to incubated with HT-29 at 37° C. for 48 h. A level of GROα in a cell culture supernatant was then detected using an ELISA kit for GROα (Cisbio, #62HCXC1peg).
Inhibitory effect of the compound prepared in Examples on hIL-17A-induced chemokine GROα/CXCL1 production in HT-29 cell was tested according to the methods of Experimental Examples 1 and 2. […] “-” indicated not tested. According to the results, the compounds provided herein have good human IL-17A inhibitory activity and can be effectively used in the treatment of diseases associated with abnormal hIL-17A activity.

[1] = Drug metabolism properties (pharmacokinetics) in dogs; format: in vivo; settings: both sexes, plasma; dog, intravenous injection/oral gavage; read-out: Oral bioavailability F % (dog)
Procedure: (§1) In order to investigate the drug metabolism property of the compounds provided herein in dogs, a compound solution was given to 2 groups of dogs (4 dogs (2 males+2 females) for each group) by intravenous injection/oral gavage at corresponding doses. After 55 min, 15 min, 30 min, 1 h, 2 h, 4 h, 8 h, 12 h, 24 h and 36 h administration, anticoagulated whole blood was collected from dogs, and plasma was separated.
(§2) Plasma concentrations of compounds were determined by standard curve calibration method using LC-MS. Using Winnolin 5.2 software, plasma concentration-time data were fitted to pharmacokinetic parameters, including elimination half-life (T1/2), area under the plasma pharmacokinetic curve at the sampling endpoint (AUClast), peak concentration (Cmax), apparent volume of distribution (Vz), total clearance ration (Cl), and absolute bioavailability (F %).

[2] = Drug metabolism properties (pharmacokinetics) in mice; format: in vivo; settings: mouse, plasma, intravenous injection/oral gavage, read-out: Oral bioavailability F % (mice)
Procedure: In order to investigate the drug metabolism property of the compounds provided herein in mice, a compound solution was given to 6 mice by intravenous injection/oral gavage at corresponding doses. Mice were divided into groups A and B for each administration, where anticoagulated whole blood was collected from group A at 5 min, 30 min, 2 h and 8 h after drug administration; and anticoagulated whole blood was collected from group B at 15 min, 1 h, 4 h and 24 h after drug administration. plasma was separated.
as §2

human IL-17A (hIL-17A) = molecular target: T2, human IL-17A (hIL-17A) (Homo sapiens, UniProt Q16552); assay: IL-17A enzyme-linked immunosorbent assay (competitive ELISA, receptor-ligand binding)
T2 construct: purchased Sino Biological Inc. 12047-H07B
T2 sequence (Q16552 24-155): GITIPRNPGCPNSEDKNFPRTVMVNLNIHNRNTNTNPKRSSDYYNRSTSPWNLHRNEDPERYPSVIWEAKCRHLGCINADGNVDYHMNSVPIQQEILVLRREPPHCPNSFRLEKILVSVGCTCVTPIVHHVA
Procedure: The inhibition of receptor-ligand binding by human IL-17A (hIL-17A) inhibitors was detected by competitive ELISA. A 96-well plate was inoculated 0.2 μg/ml IL-17 (Sino Biological Inc. Cat #12047-H07B) for incubation at 37° C. for 30 min, 100 μL for per well. The 96-well plate was washed four times with phosphate buffered saline (PBS) containing Tween-20 (PBST, 0.05% Tween-20), 200 μL for per well each time. 200 μL of 5% skim milk were added into the 96-well plate for incubation on a shaker at 25° C. for 30 min. The 96-well plate was washed four times with PBST (0.05% Tween-20), and added with 89 μL of PBST and 1 μL of a compound to be measured (100×), in which a concentration the compound to be measured (100×) was 0.003 μM-30 μM. The mixture was mixed evenly and incubated at 25° C. for 10 min. The mixture was added with 10 μL of 16 nM IL-17R, followed by incubation at 25° C. for 30 min. After washing the 96-well plate 4 times, 100 μL of anti-Fc tag horseradish peroxidase (HRP) coupled antibody were added for incubation on a shaker at 25° C. for 30 min. After washing the 96-well plate 4 times, 100 μL of 3,3′,5,5′-tetramethylbenzidine (TMB) substrate solution were added to the 96-well plate for incubation away from light at 25° C. After addition of 20% HCl, an absorbance was measure by a microplate reader at 450 nm.
The compounds prepared according to the above method were assayed for human IL-17A inhibitory activity.

[3] = Drug metabolism properties (pharmacokinetics) in rats; format: in vivo; settings: plasma; rat, intravenous injection/oral gavage; read-out: Oral bioavailability F % (rat)
Procedure: as §1, with “rats,” for “dogs,”, “3 rats” for “2 groups of dogs (4 dogs (2 males+2 females) for each group)”, “5” for “55”, “8” for “8 h, 12 h, 24”, “24” for “36”
as §2

hIL-17A protein = molecular target: T3, hIL-17A protein (Homo sapiens, UniProt Q16552); assay: Binding to hIL-17A protein through surface plasmon resonance (SPR, Biacore 8K); settings: for ka / kd: SPR; for binding to hIL-17A (SPR, in words): compared with the positive compound
T3 sequence (Q16552 24-155): T2 sequence (Q16552 24-155)
Procedure: The binding of the compounds provided herein to the hIL-17A protein was tested using SPR, and analyzed using a Biacore 8K system. A positive compound was the compound of Example 32 in WO2020/127685A1.

[4] = system: imiquimod cream-induced psoriasis model; assay: Pharmacodynamic test of imiquimod cream-induced psoriasis model in mice; format: in vivo, C57BL/6N mice
Procedure: The backs of […] female C57BL/6N mice were shaved approximately 2.5×4 cm, and imiquimod (IMQ, Imiquimod) cream was applied continuously from day 1 to day 5 to establish a psoriasis model. The compound 26 provided herein (3, 10, 30 mg/kg) was given once daily by gavage to the mice, an IL-17A antibody solution (Ab, 2 mg/kg) was given by intraperitoneal injection every other day to the mice, or a dexamethasone solution (10 mg/kg) was given once daily by intraperitoneal injection to the mice. […] A skin thickness of mice was measured on the first day and fifth day to examine IMQ-induced skin thickening (FIG. 3B).
The skin of each group of mice was collected on the fifth day to detect IL6 mRNA levels by RT-qPCR (FIG. 3C). […] The plasma of mice in each group was collected on the fifth day to determine the level of IL-6 protein (FIG. 3D).

hIL-17A/RA = molecular target: T4, hIL-17A/RA (Homo sapiens, UniProt Q16552); assay: Reversibility of binding by jump dilution ELISA (hIL-17A/hIL-17RA); settings: for maintenance of binding to and inhibition of hIL-17A protein (jump dilution, in words): compared with the positive compound
T4 construct: biotin label (inferred from streptavidin-HRP detection)
T4 sequence (Q16552 24-155): T2 sequence (Q16552 24-155)
Procedure: The reversibility of the binding of the compounds in Examples to hIL-17A and the binding time of the compound-protein complex were qualitatively and quantitatively analyzed by jump dilution assay. The positive compound was the compound of Example 32 in WO2020/127685 A1. 7 nM hIL-17RA were inoculated to a 96-well plate (100 μL for per well), and incubated at 37° C. for 30 min. A blank group was 100 μL of coating buffer solution. After […] incubation at 4° C., the 96-well plate was washed with PBST (0.05% Tween-20) 4 times, 200 μL for per well each time. The 96-well plate was added with 200 μL 3% BSA (PBST diluted) and closed on a shaker at 37° C. for 30 min. […] The configured hIL7A was mixed with an equal volume of compound in a 200 ul centrifuge tube to obtain a protein-compound mixture. The protein-compound mixture was subjected to pre-incubation at room temperature for 15 min. The protein-compound mixture, positive control group and negative control group were diluted 200×. After closing, the 96-well plate was washed 4 times, and added with dilution 100 μL for per well to incubate at 25° C. for 28, 24, 5, 2 and 0 h. After washing the plate 4 times, 100 μL of Streptavidin-HRP coupled antibody diluted with 1% BSA was added and then incubated for 30 min on a shaker at 25° C. After washing the plate 4 times, 100 μL of TMB substrate solution were added, and incubated away from light for 5-15 min at 25° C. (depending on the color of the reaction). After addition of 20% HCl, an absorbance was measure by a microplate reader at 450 nm.

| Compound | IC50 (hIL-17A) | bioavailability [1] | bioavailability [2] | IC50 (human IL-17A (hIL-17A)) | bioavailability [3] | Kd (hIL-17A protein) | ka (hIL-17A protein) | kd (hIL-17A protein) | binding to hIL-17A (SPR, in words) (hIL-17A protein) | skin pathological injury, HE staining ([4]; 30 mg/kg, fifth day, FIGS. 4A-4D) | IMQ-induced skin inflammation, AUC of PASI scoring ([4]; 3, 10, 30 mg/kg once daily by gavage, FIG. 3A) | skin IL6 mRNA levels by RT-qPCR ([4]; fifth day, FIG. 3C) | IL-6 protein level in plasma ([4]; fifth day, FIG. 3D) | IMQ-induced skin thickening ([4]; skin thickness first day and fifth day, FIG. 3B) | maintenance of binding to and inhibition of hIL-17A protein (jump dilution, in words) (hIL-17A/RA) | 50% enzyme activity retention time, Value on hIL-17A/RA (5X cpds) (hIL-17A/RA; jump dilution, 5X cpds) | 50% enzyme activity retention time, Value on hIL-17A/RA (10X cpds) (hIL-17A/RA; jump dilution) |
| --- | --- | --- | --- | --- | --- | --- | --- | --- | --- | --- | --- | --- | --- | --- | --- | --- | --- |
| Cc1n[nH]c(C)c1-c1ccc(NC(=O)[C@@H](NC(=O)c2ccnn2C(C)C)C2c3ccc(F)cc3OCC23CC3)cn1 (stereo partly shown) [Compound 18] | 332 nM | 41% | 55% | 164 nM | 18% |  |  |  |  |  |  |  |  |  |  |  |  |
| Cc1nonc1C(=O)N[C@H](C(=O)Nc1ccc(-c2c(C)n[nH]c2C)cc1)C1c2ccc(F)cc2OCC12CC2 (stereo partly shown) [Compound 24] | 30 nM | 27% | 51% | 53 nM | 56% | 0.00388 nM | 12400 M⁻¹ s⁻¹ | 4.8e-08 s⁻¹ | strong binding to hIL-17A and were much stronger than the positive compound |  |  |  |  |  |  |  |  |
| CCc1nonc1C(=O)N[C@H](C(=O)Nc1ccc(-c2c(C)n[nH]c2C)nc1)C1c2ccc(F)cc2OCC12CC2 (stereo partly shown) [Compound 26] | 267 nM |  | 54% | 70 nM | 16% |  | 21300 M⁻¹ s⁻¹ | 1.98e-08 s⁻¹ | strong binding to hIL-17A and were much stronger than the positive compound | effective in inhibiting IMQ-induced skin inflammatory cell infiltration and damage | attenuated the level of IMQ-induced skin inflammation with effects similar to those of the IL-17A antibody | dose-dependent reversion | inhibited in a dose-dependent manner | reversed the skin thickening caused by IMQ to varying degrees | able to maintain binding to and inhibit the activity of hIL-17A protein for a long time |  |  |
| CCc1nonc1C(=O)N[C@H](C(=O)Nc1ccc(-c2c(C)n[nH]c2C)cc1)C1c2cc(F)c(F)cc2OCC12CC2 (stereo partly shown) [Compound 43] | 57 nM | 18% | 49% | 55 nM | 36% | 0.00132 nM | 14200 M⁻¹ s⁻¹ | 1.87e-08 s⁻¹ | strong binding to hIL-17A and were much stronger than the positive compound |  |  |  |  |  | able to maintain binding to and inhibit the activity of hIL-17A protein for a long time | >28 h | >28 h |
| Cc1n[nH]c(C)c1-c1ncc(NC(=O)[C@@H](NC(=O)c2ccnn2C(C)C)C2c3cc(F)c(F)cc3OCC23CC3)cc1F (stereo partly shown) [Compound 47] | 172 nM |  |  | 88 nM |  | 0.00169 nM | 20400 M⁻¹ s⁻¹ | 3.44e-08 s⁻¹ | strong binding to hIL-17A and were much stronger than the positive compound |  |  |  |  |  | able to maintain binding to and inhibit the activity of hIL-17A protein for a long time |  | >28 h |
| Cc1n[nH]c(C)c1-c1ccc(NC(=O)[C@@H](NC(=O)c2nonc2C2CC2)C2c3cc(F)c(F)cc3OCC23CC3)cc1 (stereo partly shown) [Compound 49] | 146 nM | 20% | 37% | 146 nM | 17% |  |  |  |  |  |  |  |  |  |  |  |  |
| CCc1nonc1C(=O)N[C@H](C(=O)Nc1ccc(-c2c(C)n[nH]c2C)cc1)C1c2ccc(F)c(F)c2OCC12CC2 (stereo partly shown) [Compound 58] | 109 nM | 16% | 26% | 54 nM | 28% |  |  |  |  |  |  |  |  |  |  |  |  |
| Cc1n[nH]c(C)c1-c1ccc(NC(=O)[C@@H](NC(=O)OC2CC2)C2c3cc(F)c(F)cc3OCC23CC3)cc1 (stereo partly shown) [Compound 106] | 119 nM |  |  | 66 nM |  |  |  |  |  |  |  |  |  |  |  |  |  |
| COC(=O)N[C@H](C(=O)Nc1ccc(-c2c(C)n[nH]c2C)cc1)C1c2cc(F)c(F)cc2OCC12CC2 (stereo partly shown) [Compound 107] | 383 nM |  |  | 51 nM |  |  |  |  |  |  |  |  |  |  |  |  |  |
